{
  "source": "paper PMC9541094",
  "about": "(Chemistry (Weinheim an der Bergstrasse, Germany), 2022)",
  "system": "tumor spheroids of MDA-MB-231 cells and murine bone marrow derived macrophages",
  "assay": "3D co-culture spheroid viability, alamar blue assay",
  "format": "cell-based, human; murine",
  "conditions": "doxorubicin 1.25 μM alone",
  "data": [
    {"smiles": "COc1cccc2c1C(=O)c1c(O)c3c(c(O)c1C2=O)C[C@@](O)(C(=O)CO)C[C@@H]3O[C@H]1C[C@H](N)[C@H](O)[C@H](C)O1", "note": "[doxorubicin]", "values": [
      {"measurement": "3D spheroid viability versus vehicle control", "value": "~100", "unit": "%"}
    ]}
  ]
}
